This is an account of results in patent publication US20190291112A1, “DROPLET MICROFLUIDICS FOR DRUG SCREENING” (University of Macau, priority 2018, published 2019).

Molecules are shown by their SMILES.

Holding throughout (format): cell-based, human
The subject of experiment [1] is NAS1607 primary nasopharyngeal tumor sample. As to the kind of experiment: On chip drug screening of primary tumor dissociated cells. As for the experimental part: All human studies were conducted with the approval of the Panel on Research Ethics of University of Macau and the Research Ethics Committee of Kiang Wu Hospital, according to the Materials Transfer Agreement between University of Macau and Kiang Wu Hospital. Informed consent for sampling and publication without identifiable information was obtained from all participating patients. All patient sample names were double encoded by the university and the hospital, respectively, to remove any trace of patient identity during sample collection, transfer, processing and analysis. Primary tumors were obtained from surgery conducted at Kiang Wu Hospital immediately after tumor resection. Tumor tissue was dissociated as previously described. Briefly, tumor tissue was first cut into small pieces by a scalpel, then transferred to a 50 mL conical tube containing 5 mL Digestion Buffer I (DMEM/F12 medium containing 5% FBS, 5 μg/mL insulin, 500 ng/mL hydrocortisone, 10 ng/mL epidermal growth factor (EGF), 20 ng/mL cholera toxin, 300 U/mL collagenase III and 100 U/mL hyaluronidase), and digested for no more than 12 h with shaking at 100 rpm in humidified incubator at 37° C. supplemented with 5% CO2. After spinning down at 400 g at ambient temperature for 2 min, the cells were resuspended with 2 mL Digestion Buffer II (DMEM/F12 medium containing 5 mg/mL dispase II and 0.1 mg/mL deoxyribonuclease I), followed by digestion at ambient temperature for 5 min. The cells were then washed with 10 mL HBSS (Life Technologies, USA). […]
Briefly, cells at final concentrations of 1-2×10^6 cells per mL were aliquoted in 0.2 mL PCR tubes, then mixed with corresponding drugs and 2 μM ethidium homodimer 1 (Life Technologies, USA) by manual pipetting. […] Brightfield and red fluorescence images (Ex. 531/40 nm, Em. 593/40 nm) were taken under 10× magnification (Life Technologies EVOS FL Imaging System, USA).
(§1) For on chip assays, the number of cells was counted in brightfield and red fluorescence images from each well respectively. Cell viability was calculated as follows: […]

Experiment [2] concerns derived cell line NAS1604C. The experiment is described as follows: On chip drug screening of derived cell line. As for the experimental part: On chip drug screening was performed using the PDMS-based microfluidic chip as described above. A 500 μL glass syringe (Hamilton, USA) and polytetrafluoroethylene (PTFE) tubings with appropriate bore (Cole Parmer, USA) was used to connect between the syringe pump (Harvard Apparatus PHD Ultra Syringe Pump, USA) and the microfluidic chip. Fluorinert® FC-40 (Sigma-Aldrich, USA) supplemented with 2% 008-Fluorosurfactant (Ran Biotechnologies, USA) was used as oil phase; relevant cell culture medium, supplemented with 1% (w/v) methyl cellulose (Sigma-Aldrich, USA) was used as aqueous phase. Cells treated with 0.1% dimethyl sulfoxide (DMSO) were used as negative control.
Briefly, cells at final concentrations of 1-2×10^6 cells per mL were aliquoted in 0.2 mL PCR tubes, then mixed with corresponding drugs and 2 μM ethidium homodimer 1 (Life Technologies, USA) by manual pipetting. Next, […], cell-drug mixtures were loaded into the tubing, consecutively segregated by oil phase at withdrawal rate of 200 μL/h by syringe pump. After loading all mixtures, the tubing was inserted into the microfluidic chip, which was back-flushed with oil phase at 500 μL/h by syringe pump. After that, the mixtures were infused at 25 μL/h by syringe pump. Finally, the inlet and outlet tubings were cut and sealed with Vaseline (Vaseline, USA). The chips were placed in 150 mm cell culture dish (Coming, USA) containing wet paper towels, and transferred to humidified incubator at 37° C. supplemented with 5% CO2 for 16-24 h incubation. Brightfield and red fluorescence images (Ex. 531/40 nm, Em. 593/40 nm) were taken under 10× magnification (Life Technologies EVOS FL Imaging System, USA).
as §1
where Total cells and Dead cells referred to the total number of cells counted from brightfield and red fluorescence images, respectively.
Drug susceptibility between the primary tumor cell NAS1604 and its derived cell line NAS1604C was compared (FIG. 9). […] Here, the concept of droplet cell viability was introduced to indicate the total number of live cells among all cells in each individual droplet; in turn, the range of droplet cell viability referred to the range of cell viability of all droplets under specified treatment condition. […] On the other hand, mean cell viability of all treatment conditions were higher in the derived cell line NAS1604C than corresponding conditions in the primary tumor cell NAS1604, reminiscent of increased cell viability that was required for tumor amplification.

Another experiment has as its system Jurkat cells. The experiment is described as follows: On chip drug screening assay (ethidium homodimer 1 staining). The following applies: 16-24 h. As for the experimental part:
Jurkat E6.1 cells (ATCC® TIB-152™) and MDA-MB-231 cells (ATCC® HTB-26™) were used as models for suspended and adherent cancer cell lines respectively. Jurkat cell line was derived from human acute T cell leukemia, whereas MDA-MB-231 cell line was derived from human metastatic breast adenocarcinoma. On chip drug screening was performed using the PDMS-based microfluidic chip as described above. A 500 μL glass syringe (Hamilton, USA) and polytetrafluoroethylene (PTFE) tubings with appropriate bore (Cole Parmer, USA) was used to connect between the syringe pump (Harvard Apparatus PHD Ultra Syringe Pump, USA) and the microfluidic chip. Fluorinert® FC-40 (Sigma-Aldrich, USA) supplemented with 2% 008-Fluorosurfactant (Ran Biotechnologies, USA) was used as oil phase; relevant cell culture medium, supplemented with 1% (w/v) methyl cellulose (Sigma-Aldrich, USA) was used as aqueous phase. Cells treated with 0.1% dimethyl sulfoxide (DMSO) were used as negative control. […] Next, […], cell-drug mixtures were loaded into the tubing, consecutively segregated by oil phase at withdrawal rate of 200 μL/h by syringe pump. After loading all mixtures, the tubing was inserted into the microfluidic chip, which was back-flushed with oil phase at 500 μL/h by syringe pump. After that, the mixtures were infused at 25 μL/h by syringe pump. Finally, the inlet and outlet tubings were cut and sealed with Vaseline (Vaseline, USA). […] Brightfield and red fluorescence images (Ex. 531/40 nm, Em. 593/40 nm) were taken under 10× magnification (Life Technologies EVOS FL Imaging System, USA). […] For on chip assays, the number of cells was counted in brightfield and red fluorescence images from each well respectively.

By IC50 is commonly meant the point on the concentration scale where inhibition reaches its midpoint. High values mean weaker potency, low ones greater potency. As for `CC(C)C[C@H](NC(=O)[C@H](Cc1ccccc1)NC(=O)c1cnccn1)B(O)O` [bortezomib], the “dose dependence of normalized cell viability” value in experiment [1] (NAS1607, 16-24 h, normalized to mock treatment) was “inverse correlation”. In experiment [2] (1 μM bortezomib), the “droplet cell viability range” value was 37.5% and the “droplet cell viability range after removal of one droplet outlier” value amounted to 16.1%. The “cell viability compared with mock treatment” value in experiment [2] (1 μM, versus DMSO) was “highest cell viability”. The same compound yielded an IC50 with Jurkat cells (Homo sapiens) of 22.1 µM.

Take `N.N.[Cl][Pt][Cl]` [cisplatin]: the susceptibility result in experiment [1] (NAS1607, 100 μM and 33 μM) is “leveled off”. Further, the “droplet cell viability range” value in experiment [2] (11 μM cisplatin) was found to be 36.5%; in experiment [2] (33 μM cisplatin), 71.6%. The “droplet cell viability range after removal of one droplet outlier” value in experiment [2] (33 μM cisplatin) is given as 40.8%. For the same compound, in experiment [2] (11 and 33 μM), the “dose dependence of response” value is “dose-dependent response”. Further, the midpoint of inhibition in the experiment with Jurkat cells, the IC50, lay at 39 µM.
